Results on four molecules are retold here after patent US9023986B2, “Glucose-dependent insulinotropic peptide analogs” (Hoffmann-La Roche Inc., priority 2010, dated 2015).

For this assay, the target named is T1, human GIPR (Homo sapiens, UniProt P48546).
T1 construct: host or cells: CHO-K1
T1 sequence (P48546 22-466): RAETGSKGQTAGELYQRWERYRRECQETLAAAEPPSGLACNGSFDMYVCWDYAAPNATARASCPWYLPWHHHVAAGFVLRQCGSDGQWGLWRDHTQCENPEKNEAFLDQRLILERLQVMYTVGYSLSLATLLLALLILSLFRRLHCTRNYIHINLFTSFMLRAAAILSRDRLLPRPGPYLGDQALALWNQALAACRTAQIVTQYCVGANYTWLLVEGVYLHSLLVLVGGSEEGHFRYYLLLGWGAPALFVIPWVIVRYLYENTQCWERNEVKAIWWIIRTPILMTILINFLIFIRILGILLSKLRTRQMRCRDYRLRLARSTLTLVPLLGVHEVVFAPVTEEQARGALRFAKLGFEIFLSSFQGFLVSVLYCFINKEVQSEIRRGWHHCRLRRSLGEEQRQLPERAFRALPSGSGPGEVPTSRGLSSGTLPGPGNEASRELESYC
The assay is described as follows: cAMP production in CHO-K1 cells expressing human GIPR (LANCE cAMP assay). It counts as cell-based. To be noted: for Emax: CHO-K1, read-out: % activation of cAMP (maximal stimulation). Here is the method:
CHO—K1 cells expressing human GIPR were obtained from DiscoverX Corporation (Fremont, Calif.). The cells were cultured in Ham's F-12 nutrient media supplemented with 10% foetal bovine serum, 800 μg/ml geneticin, 300 μg/ml hydromycin, 2 mM L-glutamine, and Penicillin-streptomycin (100 units, 100 μg) at 37° C. in a 5% CO2 incubator. The cells were harvested at 90% confluence.
The cells were suspended in Ham's F-12 nutrient media to a concentration of 200,000 cells/ml. The cells were then plated in a 384 well plate at with […] of the suspension added per well. The cells were incubated overnight at 37° C. in a 5% CO2 incubator.
The activity of the compounds was determined by stimulating the CHO—K1 cells with the test compound, and measuring the levels of cAMP produced. The activity of the compounds was compared to the activity of native GIP, as GIP stimulates cAMP production. 6 μl of the test compound in stimulation buffer (990 ml Hank's Balanced Salt solution (HBSS) (1×) (Invitrogen Corp #14025-092), 10 ml Hepes buffer solution (1 mol·L) (Invitrogen Corp 15630-080), 1 g BSA (final 0.1%), and 1 ml IBMX 250 mM stock prepared fresh in DMSO (Sigma-Aldrich 15879)) were added to cells, followed by 6 μl of Alexa Fluor® 647-anti cAMP antibody (Perkin Elmer) in stimulation buffer. […] The well plate was centrifuged for 3 min at 300 rpm, and incubated at room temperature for 45 minutes. 12 μl of detection mixture (biotin cAMP and EUW8044 labeled streptavidin (Eu-SA) in cAMP Detection Buffer (Perkin Elmer)) was added and incubated for 60 min at room temperature.
The levels of cAMP produced were measured according to the detailed protocol outlined in the Perkin Elmer LANCE cAMP Assay Perkin Elmer Lance cAMP Kit manual. The activity of the compounds was compared to the activity of native GIP.
The plates are read on a TRF detection instrument, EnVision® (Perkin Elmer) (excitation at 340 nm and emission at 665 nm). The values of the cAMP signal are obtained from the standard cAMP curve and used to determine the amount of maximal stimulation, and EC50 for stimulating the cAMP signal.
In general terms: Changes in cAMP serve as a functional read-out for many G protein-coupled receptors.

Usually EC50 stands for the concentration giving half of the maximal effect. Read a high EC50 as a less potent agent. As for `CC[C@H](C)[C@H](NC(=O)[C@H](CO)NC(=O)[C@H](Cc1ccc(O)cc1)NC(=O)[C@H](CC(=O)O)NC(=O)[C@H](CO)NC(=O)[C@@H](NC(=O)[C@H](Cc1ccccc1)NC(=O)[C@@H](NC(=O)CNC(=O)[C@H](CCC(=O)O)NC(=O)[C@H](C)NC(=O)[C@@H](Cc1cccc(F)c1)NC(C)=O)[C@@H](C)O)[C@@H](C)CC)C(=O)N[C@@H](C)C(=O)N[C@@H](CCSC)C(=O)N[C@@H](CC(=O)O)C(=O)N[C@@H](CCCCN)C(=O)N[C@H](C(=O)N[C@@H](Cc1c[nH]cn1)C(=O)N[C@@H](CCC(N)=O)C(=O)N[C@@H](CCC(N)=O)C(=O)N[C@@H](CC(=O)O)C(=O)N[C@@H](Cc1ccccc1)C(=O)N[C@H](C(=O)N[C@@H](CC(N)=O)C(=O)N[C@@H](Cc1c[nH]c2ccccc12)C(=O)N[C@@H](CC(C)C)C(=O)N[C@@H](CC(C)C)C(=O)N[C@@H](C)C(=O)N[C@@H](CCC(N)=O)C(=O)N[C@@H](CCCCN)C(N)=O)C(C)C)[C@@H](C)CC` [Example 16], the midpoint of the response, the EC50, lay at 0.058 nM and the Emax is 98%.

For “Ac-(D)Tyr-Ala-Glu-Gly-Thr-Phe-Ile-Ser-Asp-Tyr-Ser-Ile-Ala-Met-Asp-Lys-Ile-His-Gln-Gln-Asp-Phe-Val-Asn-Trp-Leu-Leu-Ala-Gln-Lys-NH2 [Example 6]”, for the setting “CHO-K1 cells expressing human GIPR, compared to native GIP”, the “% activation of cAMP (maximal stimulation)” value is reported as 102%. As for `CC[C@H](C)[C@H](NC(=O)[C@H](CO)NC(=O)[C@H](Cc1ccc(O)cc1)NC(=O)[C@H](CC(=O)O)NC(=O)[C@H](CO)NC(=O)[C@@H](NC(=O)[C@H](Cc1ccccc1)NC(=O)[C@@H](NC(=O)CNC(=O)[C@H](CCC(=O)O)NC(=O)[C@H](C)NC(=O)[C@@H](Cc1cccnc1)NC(C)=O)[C@@H](C)O)[C@@H](C)CC)C(=O)N[C@@H](C)C(=O)N[C@@H](CCSC)C(=O)N[C@@H](CC(=O)O)C(=O)N[C@@H](CCCCN)C(=O)N[C@H](C(=O)N[C@@H](Cc1c[nH]cn1)C(=O)N[C@@H](CCC(N)=O)C(=O)N[C@@H](CCC(N)=O)C(=O)N[C@@H](CC(=O)O)C(=O)N[C@@H](Cc1ccccc1)C(=O)N[C@H](C(=O)N[C@@H](CC(N)=O)C(=O)N[C@@H](Cc1c[nH]c2ccccc12)C(=O)N[C@@H](CC(C)C)C(=O)N[C@@H](CC(C)C)C(=O)N[C@@H](C)C(=O)N[C@@H](CCC(N)=O)C(=O)N[C@@H](CCCCN)C(N)=O)C(C)C)[C@@H](C)CC` [Example 11], a half-maximal response (EC50) required 0.08 nM and the Emax was 102%.

As for `CC[C@H](C)[C@H](NC(=O)[C@H](CO)NC(=O)[C@H](Cc1ccc(O)cc1)NC(=O)[C@H](CC(=O)O)NC(=O)[C@H](CO)NC(=O)[C@@H](NC(=O)[C@H](Cc1ccccc1)NC(=O)[C@@H](NC(=O)CNC(=O)[C@H](CCC(=O)O)NC(=O)[C@H](C)NC(=O)[C@@H](Cc1cccc(Cl)c1)NC(C)=O)[C@@H](C)O)[C@@H](C)CC)C(=O)N[C@@H](C)C(=O)N[C@@H](CCSC)C(=O)N[C@@H](CC(=O)O)C(=O)N[C@@H](CCCCN)C(=O)N[C@H](C(=O)N[C@@H](Cc1c[nH]cn1)C(=O)N[C@@H](CCC(N)=O)C(=O)N[C@@H](CCC(N)=O)C(=O)N[C@@H](CC(=O)O)C(=O)N[C@@H](Cc1ccccc1)C(=O)N[C@H](C(=O)N[C@@H](CC(N)=O)C(=O)N[C@@H](Cc1c[nH]c2ccccc12)C(=O)N[C@@H](CC(C)C)C(=O)N[C@@H](CC(C)C)C(=O)N[C@@H](C)C(=O)N[C@@H](CCC(N)=O)C(=O)N[C@@H](CCCCN)C(N)=O)C(C)C)[C@@H](C)CC` [Example 13], the half-maximal effective concentration (EC50) was 0.072 nM and the Emax amounted to 106%.
